Patent US4705797A, “N-(3,3-diphenylpropyl) aminoethyl esters of 1,4-dihydro-2,6-dimethyl-pyridine-3,5-dicarboxylic acid, compositions and use” (Recordati S.A., Chemical and Pharmaceutical Company, priority 1984, dated 1987)
Where two headings read alike, the source gives them in different places.

How the values were obtained:
[1] = LD50 determined in the mouse, i.p. and per os (Weil method); assay type: in vivo; conditions: in vivo
Procedure: (§1) The LD50 of the compounds according to the invention was determined in the mouse, both i.p. and per os, according to the method described by C. S. Weil [Biometrics, 8, 249 (1952)].

hypertensive rats (SHR) = assay: Antihypertensive activity in male hypertensive rats (SHR), systolic blood pressure by indirect tail-cuff method; assay type: in vivo, rat (SHR, Wister-Kyoto strain); conditions: 0.5% methylcellulose, systolic blood pressure measured 1, 3, 5 and 7 hours after administration; for ED25: Rattus norvegicus, po, read-out: ED25 SHR os (antihypertensive activity); for ED25 SHR os (antihypertensive activity): oral
Procedure: The antihypertensive activity of the diesters according to the invention was evaluated in male hypertensive rats (SHR, Wister-Kyoto strain, 15-25 weeks old). The determination of blood pressure was performed by an indirect method [M. Gerald et al., Arzneim. Forsch., 18, 1825 (1968)]. The animals were prewarmed in a heating chamber at a temperature of from 35° C. to 37° C. for a period of 15 minutes before pressure determination. The compounds tested by oral route were dissolved or suspended in a 0.5% methylcellulose solution. Controls were given only the vehicle. Systolic blood pressure and heart rate were measured 1, 3, 5 and 7 hours after drug administration by means of a tail-cuff and a pulse transducer.

[2] = tested on: methacholine induced coronary spasm; assay: Coronary dilating activity: antagonism of methacholine induced coronary spasm in anesthetized normotensive rats; assay type: in vivo; conditions: Rattus norvegicus, iv, i.v. infusion in water:dimethylformamide 9:1, normalization of ECG during methacholine infusion
Procedure: Coronary dilating activity was evaluated in anesthetized normotensive rats (weighing about 500 g), as the ability to antagonize methacholine induced coronary spasm. Rats were instrumented for methacholine infusion into the coronary ostium, while spastic activity was detected as ST segment elevation in D2 ECG recording [K. Sakai et al., J. Pharm. Meth., 5, 325 (1981)].
The compounds tested by i.v. infusion were dissolved in water: dimethylformamide (9:1 by volume). Activity was detected as normalization of ECG tracing after compounds administration during methacholine infusion.

mouse = assay: LD50 determined in the mouse, i.p. and per os (Weil method); assay type: in vivo; conditions: for LD50 os: per os
Procedure: as §1

SMILES | LD50 ([1]; po, per os, read-out: LD50 os) [mg/kg] | ED25 (hypertensive rats (SHR)) [mg/kg] | LD50 ([1]; ip, read-out: LD50 i.p.) [mg/kg] | ED50 [2] [mg/kg] | LD50 i.p. (mouse) [mg/kg] | LD50 os (mouse) [mg/kg] | ED25 SHR os (antihypertensive activity) (hypertensive rats (SHR)) [mg/kg]
CC1=C(C(=O)OCC(C)C)C(c2cccc(Cl)c2Cl)C(C(=O)OC(C)CN(C)CCC(c2ccccc2)c2ccccc2)=C(C)N1 (stereo not drawn) [compound 2383, isobutyl 1,N-dimethyl-N-(3,3-diphenylpropyl)-2-aminoethyl 1,4-dihydro-2,6-dimethyl-4-(2,3-dichlorophenyl)-pyridine-3,5-dicarboxylate] | 500 | 3.4 |  |  |  |  | 
CC1=C(C(=O)OCCN(C)CCC(c2ccccc2)c2ccccc2)C(c2cccc([N+](=O)[O-])c2)C(C(=O)OC(C)C)=C(C)N1 (stereo not drawn) [compound 2350, isopropyl N-(3,3-diphenylpropyl)-N-methyl-2-aminoethyl 1,4-dihydro-2,6-dimethyl-4-(3-nitrophenyl)-pyridine-3,5-dicarboxylate] | 116 | 3 | 50 |  |  |  | 
COC(=O)C1=C(C)NC(C)=C(C(=O)OC(C)(C)CN(C)CCC(c2ccccc2)c2ccccc2)C1c1cccc([N+](=O)[O-])c1 (stereo not drawn) [compound 2375, methyl 1,1,N-trimethyl-N-(3,3-diphenylpropyl)-2-aminoethyl 1,4-dihydro-2,6-dimethyl-4-(3-nitrophenyl)-pyridine-3,5-dicarboxylate] | 657 | 2.6 | 83 | 0.082 |  |  | 
COC(=O)C1=C(C)NC(C)=C(C(=O)OCCCCN(C)CCC(c2ccccc2)c2ccccc2)C1c1cccc([N+](=O)[O-])c1 (stereo not drawn) [compound 2361, methyl N-(3,3-diphenylpropyl)-N-methyl-4-aminobutyl 1,4-dihydro-2,6-dimethyl-4-(3-nitrophenyl)-pyridine-3,5-dicarboxylate] | 493 | 7.2 | 99 |  |  |  | 
COC(=O)C1=C(C)NC(C)=C(C(=O)OCCCN(C)CCC(c2ccccc2)c2ccccc2)C1c1cccc([N+](=O)[O-])c1 (stereo not drawn) [compound 2263, methyl N-(3,3-diphenylpropyl)-N-methyl-3-aminopropyl 1,4-dihydro-2,6-dimethyl-4-(3-nitrophenyl)-pyridine-3,5-dicarboxylate] | 254 | 3.4 | 171 | 0.197 |  |  | 
CC1=C(C(=O)OCCN(C)CCC(c2ccccc2)c2ccccc2)C(c2cccc([N+](=O)[O-])c2)C(C(=O)OCC(C)C)=C(C)N1 (stereo not drawn) [compound 2352, isobutyl N-(3,3-diphenylpropyl)-N-methyl-2-aminoethyl 1,4-dihydro-2,6-dimethyl-4-(3-nitrophenyl)-pyridine-3,5-dicarboxylate] |  |  |  |  | 222 | 2195 | 6.9
COC(=O)C1=C(C)NC(C)=C(C(=O)OC(C)CN(C)CCC(c2ccccc2)c2ccccc2)C1c1cccc([N+](=O)[O-])c1 (stereo not drawn) [compound 2288, methyl 1, N-dimethyl-N-(3,3-diphenylpropyl)-2-aminoethyl 1,4-dihydro-2,6-dimethyl-4-(3-nitrophenyl)-pyridine-3,5-dicarboxylate] | 197 | 1.5 | 72 | 0.046 |  |  | 
CC1=C(C(=O)OCCN(C)CCC(c2ccccc2)c2ccccc2)C(c2cccc([N+](=O)[O-])c2)C(C(=O)OCC(C)C)=C(C)N1 (stereo not drawn) [compound 2329, isobutyl N-(3,3-diphenylpropyl)-N-methyl-2-aminoethyl 1,4-dihydro-2,6-dimethyl-4-(3-nitrophenyl)-pyridine-3,5-dicarboxylate] |  |  |  |  | 63 | 401 | 3.4
COC(=O)C1=C(C)NC(C)=C(C(=O)OCCNCCC(c2ccccc2)c2ccccc2)C1c1cccc([N+](=O)[O-])c1 (stereo not drawn) [compound 2279, methyl N-(3,3-diphenylpropyl)-2-amino-ethyl 1,4-dihydro-2,6-dimethyl-4-(3-nitrophenyl)-pyridine-3,5-dicarboxylate] | 279 | 7.3 | 121 | 0.297 |  |  | 
